Laboratory results reported in patent US6544768B1, “Mammalian soluble adenylyl cyclase” (Cornell Research Foundation, Inc., priority 1999, dated 2003).
Read-outs that look alike come from different tables or passages of the source.

Tests used:
soluble adenylyl cyclase = settings: cited from earlier work
[1] = molecular target: T1, full-length and truncated forms of sAC (Rattus norvegicus, UniProt Q9Z286); assay: Adenylyl cyclase assay in whole-cell sonicates from sAC-transfected HEK293 cells; assay type: biochemical; settings: both full-length and truncated forms
T1 construct: we heterologously expressed the full-length cDNA in HEK293 cells; expressed in transfected cells; host or cells: HEK293, transient, pBK-CMV
T1 sequence (Q9Z286 whole entry, the tested form may be a part): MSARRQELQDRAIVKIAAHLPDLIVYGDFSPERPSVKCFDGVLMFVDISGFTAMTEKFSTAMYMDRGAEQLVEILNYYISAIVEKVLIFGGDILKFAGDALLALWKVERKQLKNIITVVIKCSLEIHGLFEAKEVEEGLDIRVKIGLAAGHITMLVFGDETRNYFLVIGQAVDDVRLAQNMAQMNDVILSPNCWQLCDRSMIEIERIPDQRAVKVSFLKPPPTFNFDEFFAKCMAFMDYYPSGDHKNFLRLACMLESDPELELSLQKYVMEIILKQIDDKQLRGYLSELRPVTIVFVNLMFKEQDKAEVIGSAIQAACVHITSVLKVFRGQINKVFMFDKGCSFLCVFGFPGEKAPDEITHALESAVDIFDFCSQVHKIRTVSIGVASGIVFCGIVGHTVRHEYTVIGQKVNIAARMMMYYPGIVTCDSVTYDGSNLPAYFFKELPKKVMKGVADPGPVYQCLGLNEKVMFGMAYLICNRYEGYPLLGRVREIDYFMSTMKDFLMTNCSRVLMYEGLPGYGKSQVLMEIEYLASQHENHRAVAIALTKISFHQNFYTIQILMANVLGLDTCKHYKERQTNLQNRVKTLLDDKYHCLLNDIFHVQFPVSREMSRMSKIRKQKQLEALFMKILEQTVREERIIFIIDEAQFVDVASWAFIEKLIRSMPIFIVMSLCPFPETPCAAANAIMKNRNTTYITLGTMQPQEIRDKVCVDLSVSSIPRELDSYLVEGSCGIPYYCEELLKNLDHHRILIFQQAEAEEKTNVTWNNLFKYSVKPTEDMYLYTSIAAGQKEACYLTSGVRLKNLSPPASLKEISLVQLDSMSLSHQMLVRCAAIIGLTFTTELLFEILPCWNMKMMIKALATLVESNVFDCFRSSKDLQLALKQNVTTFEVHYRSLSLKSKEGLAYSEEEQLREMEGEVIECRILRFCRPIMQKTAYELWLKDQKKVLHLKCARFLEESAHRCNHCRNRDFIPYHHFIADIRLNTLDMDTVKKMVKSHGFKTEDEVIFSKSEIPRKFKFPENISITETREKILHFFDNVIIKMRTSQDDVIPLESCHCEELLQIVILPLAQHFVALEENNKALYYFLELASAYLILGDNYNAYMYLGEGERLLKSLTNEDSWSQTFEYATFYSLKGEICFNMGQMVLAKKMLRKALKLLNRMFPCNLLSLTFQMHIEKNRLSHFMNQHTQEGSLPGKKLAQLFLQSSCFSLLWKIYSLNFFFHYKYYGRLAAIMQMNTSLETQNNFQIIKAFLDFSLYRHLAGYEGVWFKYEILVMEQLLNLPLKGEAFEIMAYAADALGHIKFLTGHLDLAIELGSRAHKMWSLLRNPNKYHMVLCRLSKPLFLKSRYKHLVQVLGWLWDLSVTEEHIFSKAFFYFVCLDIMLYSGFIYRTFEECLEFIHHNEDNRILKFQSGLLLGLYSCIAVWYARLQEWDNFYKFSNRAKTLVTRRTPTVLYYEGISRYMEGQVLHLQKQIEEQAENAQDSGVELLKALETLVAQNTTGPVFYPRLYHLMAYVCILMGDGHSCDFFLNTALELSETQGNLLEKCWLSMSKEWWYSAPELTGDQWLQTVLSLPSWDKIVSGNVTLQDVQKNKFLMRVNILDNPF
Source text: Heterologous Expression. To confirm that the gene we isolated encoded an adenylyl cyclase, we heterologously expressed the full-length cDNA in HEK293 cells. The full-length and truncated sAC cDNAs were expressed from the library vector (pBK-CMV) under the control of the cytomegalovirus promoter after deletion of the intervening bacterial promoter sequences (as an NheI-SpeI fragment). The truncated sAC cDNA (sACt) represented a library clone that was missing an exon. The resultant protein shifted the reading frame after valine 469 (FIG. 1; underline), introducing two incorrect amino acids (serine and cysteine) followed by a stop codon. Expression constructs were transiently introduced into HEK293 by lipofectamine—mediated transfection (Life Technologies, Grand Island, N.Y.). One or two days after transfection, cells were harvested, resuspended in lysis buffer (50 mM Tris-HCl, pH 7.5/1 mM EDTA/1 mM DTT/0.1 mg/ml Leupeptin/1 mM phenylmethylsulfonyl fluoride) and disrupted by microtip probe sonication on ice. Whole-cell sonicates were ultramicrocentrifuged at >100,000×g for 10 minutes. Supernatants were cleared by a second centrifugation to yield ‘cytosolic’ extracts. Pellets were resuspended in lysis buffer by passage through a 27.5-gauge needle to generate ‘particulate fraction. […]

truncated form of sAC = molecular target: T2, truncated form of sAC (Rattus norvegicus, UniProt Q9Z286); assay: P site ligand test on truncated sAC; assay type: biochemical
T2 construct: sACt, amino acids 1-469
T2 sequence (Q9Z286 1-469): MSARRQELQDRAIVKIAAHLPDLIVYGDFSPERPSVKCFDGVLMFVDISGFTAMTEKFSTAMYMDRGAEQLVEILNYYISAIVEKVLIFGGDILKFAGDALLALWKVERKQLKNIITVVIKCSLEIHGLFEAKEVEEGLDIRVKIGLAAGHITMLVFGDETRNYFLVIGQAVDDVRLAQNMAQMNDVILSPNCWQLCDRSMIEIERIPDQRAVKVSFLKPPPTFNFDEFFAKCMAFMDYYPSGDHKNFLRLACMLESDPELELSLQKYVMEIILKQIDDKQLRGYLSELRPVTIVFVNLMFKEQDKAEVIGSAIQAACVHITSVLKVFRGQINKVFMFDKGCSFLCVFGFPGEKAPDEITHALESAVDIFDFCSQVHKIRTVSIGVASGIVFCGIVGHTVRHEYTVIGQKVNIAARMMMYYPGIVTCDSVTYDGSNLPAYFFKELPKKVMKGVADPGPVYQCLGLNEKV
Source text: (3) P site ligands and inhibitors of other ATP-utilizing enzymes.

[2] = molecular target: T3, Purified recombinant sACt protein (Rattus norvegicus, UniProt Q9Z286); assay: In vitro adenylyl cyclase assay with purified recombinant sACt; assay type: biochemical; settings: for % Basal (adenylyl cyclase activity relative to activity in the absence of any salts): salts at 50 mM
T3 construct: sACt, amino acids 1-469, plus a C-terminal Hexahistidine tag; Hexahistidine (C); made in house; host or cells: insect HiFive cells (baculovirus, Bac-to-Bac)
T3 sequence (Q9Z286 1-469): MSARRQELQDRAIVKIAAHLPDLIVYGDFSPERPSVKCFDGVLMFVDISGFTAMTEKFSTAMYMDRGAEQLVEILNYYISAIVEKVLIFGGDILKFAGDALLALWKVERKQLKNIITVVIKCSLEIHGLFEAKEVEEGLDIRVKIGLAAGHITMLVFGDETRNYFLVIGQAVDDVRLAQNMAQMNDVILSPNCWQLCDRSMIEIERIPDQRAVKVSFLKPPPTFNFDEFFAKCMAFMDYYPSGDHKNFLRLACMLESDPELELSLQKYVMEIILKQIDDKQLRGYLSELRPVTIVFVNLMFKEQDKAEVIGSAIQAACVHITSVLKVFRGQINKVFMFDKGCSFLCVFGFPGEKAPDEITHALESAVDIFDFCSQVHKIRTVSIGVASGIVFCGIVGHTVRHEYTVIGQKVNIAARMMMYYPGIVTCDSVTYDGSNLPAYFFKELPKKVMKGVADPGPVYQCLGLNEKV
Description: (§1) The cell lines were starved for bicarbonate (grown in HEPES-bufferred, NaHCO3-free D-MEM under ambient CO2) for 24 hours. Cellular cAMP accumulation and in vitro adenylyl cyclase activity in the presence of [a^32P] ATP and MnCl2 or MgCl2 were assayed. In vitro adenylyl cyclase assays were performed at pH 7.5 in Tris-buffered solutions.
Kinetic parameters were determined using KinetAsyst II (IntelliKinetics).

sAC [3] = assay: Ecdysone inducible sAC expression in transiently transfected NIH3T3 cells; assay type: cell-based; settings: transient transfection
Source text: The commercially available (Invitrogen) ecdysone inducible system (No, D. et al., PNAS, 1996, 93:3346-3351) is based on an insect hormone regulated transcriptional activator, the ecdysone receptor (EcR). This system takes advantage of the specificity of EcR for its own response element, and the lack of any cross-reactivity by any mammalian transcription factor. We stably introduced both the EcR and its requisite partner, Retinoid X Receptor (RXR) into NIH3T3 cells. Additionally, to confirm the efficacy of this expression system, we performed pilot experiments with 3T3 cells transiently transfected with both plasmids. […] This induction was overcome by co-expression of sAC antisense (αsAA). The sequence was the entire sAC truncated (sAC trunc) sequence cloned in reverse orientation with respect to the promoter. The coding sequence for sAC trunc was approximately 1 through 1710 and the antisense was nucleotides 1710 through 1. For the antisense experiment, we transiently transfected three plasmids into NIH3T3 cells: 1) Ecdysone receptor/RXR expression plasmid; 2) sAC trunc expression plasmid (driven by ecdysone promoter) and 3) antisense expression plasmid (driven by ecdysone promoter).

sAC [4] = assay: Adenylyl cyclase activity in anti-sAC immunoprecipitates from rat testis cytosol; assay type: biochemical; settings: 40 mM NaHCO3 or 100 μM Forskolin
Description: Rat testis were tested for sAC activity by immunoassay. Immunoprecipitates from rat testis cytosol were tested using either pre-immune serum or α-sAC antisera. […]. […]. Data in FIG. 4b are presented as pmol of cAMP formed over 20 minutes, and values represent averages of duplicate determinations with standard deviations indicated.

sACfl = sACfl (Rattus norvegicus, UniProt Q9Z286)
sACfl, sequence (Q9Z286 whole entry): as the sequence (Q9Z286 whole entry, the tested form may be a part) above
Description: as §1

[5] = test system: HEK293/V cells, which express endogenous tmACs; settings: for Cellular cAMP accumulation in HEK293/V: vector transfected cells
Description: as §1
Among mammalian adenylyl cyclases, sAC appears to be the only form regulated by bicarbonate ions.

Spirulina platensis CyaC [6] = molecular target: T4, Spirulina platensis CyaC (Limnospira platensis, UniProt O32393); settings: 0-60 mM NaHCO3, 100 μM ATP, 5 mM MnCl2
T4 sequence (O32393 1-1202): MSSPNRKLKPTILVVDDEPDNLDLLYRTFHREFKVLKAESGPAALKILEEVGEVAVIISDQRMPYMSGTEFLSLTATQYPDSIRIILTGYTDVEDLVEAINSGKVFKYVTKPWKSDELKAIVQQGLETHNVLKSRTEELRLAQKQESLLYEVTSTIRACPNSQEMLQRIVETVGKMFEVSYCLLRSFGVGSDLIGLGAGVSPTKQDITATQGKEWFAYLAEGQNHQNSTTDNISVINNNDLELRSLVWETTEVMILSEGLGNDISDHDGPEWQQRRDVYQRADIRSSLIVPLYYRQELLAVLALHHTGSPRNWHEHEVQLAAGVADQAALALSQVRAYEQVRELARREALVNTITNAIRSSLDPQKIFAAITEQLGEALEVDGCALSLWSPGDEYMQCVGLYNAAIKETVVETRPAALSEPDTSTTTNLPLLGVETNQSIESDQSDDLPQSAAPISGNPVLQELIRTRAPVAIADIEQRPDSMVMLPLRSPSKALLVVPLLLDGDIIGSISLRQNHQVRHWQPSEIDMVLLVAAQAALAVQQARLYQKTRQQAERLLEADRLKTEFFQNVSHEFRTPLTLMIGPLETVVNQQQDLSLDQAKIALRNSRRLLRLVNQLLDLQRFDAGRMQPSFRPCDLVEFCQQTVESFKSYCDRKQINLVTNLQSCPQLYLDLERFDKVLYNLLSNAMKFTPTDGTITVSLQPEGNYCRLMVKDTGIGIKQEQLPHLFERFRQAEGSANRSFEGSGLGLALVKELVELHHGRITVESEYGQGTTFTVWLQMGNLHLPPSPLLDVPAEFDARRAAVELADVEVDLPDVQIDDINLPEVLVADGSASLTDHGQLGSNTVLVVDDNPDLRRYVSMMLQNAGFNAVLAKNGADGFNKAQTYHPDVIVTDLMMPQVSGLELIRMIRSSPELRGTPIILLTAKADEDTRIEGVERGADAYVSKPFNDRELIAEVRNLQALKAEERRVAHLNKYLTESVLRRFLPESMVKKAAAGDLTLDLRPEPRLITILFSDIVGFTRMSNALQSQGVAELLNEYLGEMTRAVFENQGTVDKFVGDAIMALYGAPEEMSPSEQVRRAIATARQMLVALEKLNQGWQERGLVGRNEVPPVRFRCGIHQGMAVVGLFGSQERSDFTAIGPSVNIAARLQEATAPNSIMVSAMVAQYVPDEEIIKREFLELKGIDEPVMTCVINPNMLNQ

Spirulina platensis CyaC [7] = molecular target: T4, Spirulina platensis CyaC; assay: biochemical
[8] = molecular target: sAC as co-expressed with mammalian CAP; assay: cell-based or functional assay
sAC [9] = settings: read-out: Km of sAC for substrate ATP; cited from earlier work
tmACs = settings: read-out: Km of tmACs for substrate ATP; cited from earlier work
sAC [10] = assay: Soluble adenylyl cyclase activity in cytosolic extracts from rat testis; settings: read-out: Km for ATP; in the presence of MnCl2
sAC [11] = molecular target: T5, sAC (Rattus norvegicus, UniProt Q9Z286); assay: Co-expression of mammalian CAP with sAC
T5 construct: expressed in transfected cells
T5 sequence (Q9Z286 whole entry): as the sequence (Q9Z286 whole entry, the tested form may be a part) above

N[C@@H](Cc1ccc(O)c(O)c1)C(=O)O [L-dopa]
Potency of sAC inhibition relative to catechol estrogens (fold less potent) (soluble adenylyl cyclase): 1,000 fold

Nc1nc2c(ncn2[C@@H]2O[C@H](COP(=O)(O)OP(=O)(O)OP(O)(O)=S)[C@@H](O)[C@H]2O)c(=O)[nH]1 [GTPγS]
Response of heterologously expressed sAC to stimulators of tmAC activity [1]: completely insensitive

NC[C@H](O)c1ccc(O)c(O)c1 [norepinephrine]
Potency of sAC inhibition relative to catechol estrogens (fold less potent) (soluble adenylyl cyclase): 1,000 fold

Nc1ncnc2c1ncn2[C@H]1CC[C@@H](CO)O1 [2′,3′-dideoxyadenosine]
Sensitivity of sAC to P site ligand (truncated form of sAC): insensitivity

O=S([O-])O.[Na+] [NaHSO3]
% Basal (adenylyl cyclase activity relative to activity in the absence of any salts) [2]: 138 ± 4.6%

O=P([O-])([O-])O.[Na+].[Na+] [Na2HPO4]
% Basal (adenylyl cyclase activity relative to activity in the absence of any salts) [2]: 75 ± 2.6%

O=C([O-])O.[K+] [KHCO3]
% Basal (adenylyl cyclase activity relative to activity in the absence of any salts) [2]: 412 ± 6.1%

[Cl-].[Na+] [NaCl]
% Basal (adenylyl cyclase activity relative to activity in the absence of any salts) [2]: 93 ± 11.8%

O=S(=O)([O-])[O-].[Na+].[Na+] [Na2SO4]
% Basal (adenylyl cyclase activity relative to activity in the absence of any salts) [2]: 66 ± 4.6%

O=S([O-])[O-].[Na+].[Na+] [Na2SO3]
% Basal (adenylyl cyclase activity relative to activity in the absence of any salts) [2]: 164 ± 2.9%

CC(C)CC[C@@H](O)[C@](C)(O)[C@H]1CC[C@@]2(O)C3=CC(=O)[C@@H]4C[C@@H](O)[C@@H](O)C[C@]4(C)[C@H]3CC[C@]12C [ponasterone A]
sAC activity in cells with ecdysone inducible sAC expression (sAC [3]): dependent increase in sAC activity

O=C(O)O [NaHCO3]
EC50 [2]: 25.4 ± 7.6 mM | Fold stimulation of purified enzyme ([2]; 0-80 mM NaHCO3, 10 mM ATP, 40 mM MgCl2): greater than seven-fold | % Basal (adenylyl cyclase activity relative to activity in the absence of any salts) [2]: 411 ± 5.3% | Effect on immunoprecipitated AC activity (sAC [4]): stimulated | Adenylyl cyclase activity in cellular lysates from HEK293/sACfl (sACfl; 50 mM NaHCO3): stimulated | Cellular cAMP accumulation in HEK293/sACfl (sACfl; after 24 hours bicarbonate starvation): stimulated cAMP accumulation | Cellular cAMP accumulation in HEK293/V [5]: not in vector transfected HEK293 cells | Cellular cAMP accumulation in HEK293/V ([5]; listed as bicarbonate): unaffected | tmAC activity submaximally stimulated by forskolin ([5]; with forskolin): insensitive | Fold stimulation of CyaC AC activity (Spirulina platensis CyaC [6]): 2.5 fold | EC50 (Spirulina platensis CyaC [7]): 18.8 ± 1.6 mM

NCCc1ccc(O)c(O)c1 [dopamine]
Potency of sAC inhibition relative to catechol estrogens (fold less potent) (soluble adenylyl cyclase): 1,000 fold

mammalian ortholog of yeast CAP (Cyclase Associated Protein)
sAC activity on co-expression [8]: 4 fold

Nc1ncnc2c1ncn2[C@@H]1O[C@H](COP(=O)(O)OP(=O)(O)OP(=O)(O)O)[C@@H](O)[C@H]1O [ATP]
Km (sAC [9]): ~1000 µM | Km (tmACs): ~100 µM | Km (sAC [10]): 1200 µM

B1: mammalian CAP: mammalian ortholog of yeast Cyclase Associated Protein, co-expressed with sAC (protein, UniProt Q01518 2-475, looked up)
Adenylyl cyclase-associated …: ADMQNLVERLERAVGRLEAVSHTSDMHRGYADSPSKAGAAPYVQAFDSLLAGPVAEYLKISKEIGGDVQKHAEMVHTGLKLERALLVTASQCQQPAENKLSDLLAPISEQIKEVITFREKNRGSKLFNHLSAVSESIQALGWVAMAPKPGPYVKEMNDAAMFYTNRVLKEYKDVDKKHVDWVKAYLSIWTELQAYIKEFHTTGLAWSKTGPVAKELSGLPSGPSAGSCPPPPPPCPPPPPVSTISCSYESASRSSLFAQINQGESITHALKHVSDDMKTHKNPALKAQSGPVRSGPKPFSAPKPQTSPSPKRATKKEPAVLELEGKKWRVENQENVSNLVIEDTELKQVAYIYKCVNTTLQIKGKINSITVDNCKKLGLVFDDVVGIVEIINSKDVKVQVMGKVPTISINKTDGCHAYLSKNSLDCEIVSAKSSEMNVLIPTEGGDFNEFPVPEQFKTLWNGQKLVTTVTEIAG
Increase of sAC activity on co-expression (sAC [11]): approximately four-fold
